Results on 49 compounds are retold here after patent publication US10385070B2, “Chroman-spirocyclic piperidine amides as modulators of ion channels” (VERTEX PHARMACEUTICALS INCORPORATED, priority 2011, dated 2019).

pIC50: −log10 of the molar value.

Sequence of human NaV subtype, like NaV 1.7 (Q15858 whole entry): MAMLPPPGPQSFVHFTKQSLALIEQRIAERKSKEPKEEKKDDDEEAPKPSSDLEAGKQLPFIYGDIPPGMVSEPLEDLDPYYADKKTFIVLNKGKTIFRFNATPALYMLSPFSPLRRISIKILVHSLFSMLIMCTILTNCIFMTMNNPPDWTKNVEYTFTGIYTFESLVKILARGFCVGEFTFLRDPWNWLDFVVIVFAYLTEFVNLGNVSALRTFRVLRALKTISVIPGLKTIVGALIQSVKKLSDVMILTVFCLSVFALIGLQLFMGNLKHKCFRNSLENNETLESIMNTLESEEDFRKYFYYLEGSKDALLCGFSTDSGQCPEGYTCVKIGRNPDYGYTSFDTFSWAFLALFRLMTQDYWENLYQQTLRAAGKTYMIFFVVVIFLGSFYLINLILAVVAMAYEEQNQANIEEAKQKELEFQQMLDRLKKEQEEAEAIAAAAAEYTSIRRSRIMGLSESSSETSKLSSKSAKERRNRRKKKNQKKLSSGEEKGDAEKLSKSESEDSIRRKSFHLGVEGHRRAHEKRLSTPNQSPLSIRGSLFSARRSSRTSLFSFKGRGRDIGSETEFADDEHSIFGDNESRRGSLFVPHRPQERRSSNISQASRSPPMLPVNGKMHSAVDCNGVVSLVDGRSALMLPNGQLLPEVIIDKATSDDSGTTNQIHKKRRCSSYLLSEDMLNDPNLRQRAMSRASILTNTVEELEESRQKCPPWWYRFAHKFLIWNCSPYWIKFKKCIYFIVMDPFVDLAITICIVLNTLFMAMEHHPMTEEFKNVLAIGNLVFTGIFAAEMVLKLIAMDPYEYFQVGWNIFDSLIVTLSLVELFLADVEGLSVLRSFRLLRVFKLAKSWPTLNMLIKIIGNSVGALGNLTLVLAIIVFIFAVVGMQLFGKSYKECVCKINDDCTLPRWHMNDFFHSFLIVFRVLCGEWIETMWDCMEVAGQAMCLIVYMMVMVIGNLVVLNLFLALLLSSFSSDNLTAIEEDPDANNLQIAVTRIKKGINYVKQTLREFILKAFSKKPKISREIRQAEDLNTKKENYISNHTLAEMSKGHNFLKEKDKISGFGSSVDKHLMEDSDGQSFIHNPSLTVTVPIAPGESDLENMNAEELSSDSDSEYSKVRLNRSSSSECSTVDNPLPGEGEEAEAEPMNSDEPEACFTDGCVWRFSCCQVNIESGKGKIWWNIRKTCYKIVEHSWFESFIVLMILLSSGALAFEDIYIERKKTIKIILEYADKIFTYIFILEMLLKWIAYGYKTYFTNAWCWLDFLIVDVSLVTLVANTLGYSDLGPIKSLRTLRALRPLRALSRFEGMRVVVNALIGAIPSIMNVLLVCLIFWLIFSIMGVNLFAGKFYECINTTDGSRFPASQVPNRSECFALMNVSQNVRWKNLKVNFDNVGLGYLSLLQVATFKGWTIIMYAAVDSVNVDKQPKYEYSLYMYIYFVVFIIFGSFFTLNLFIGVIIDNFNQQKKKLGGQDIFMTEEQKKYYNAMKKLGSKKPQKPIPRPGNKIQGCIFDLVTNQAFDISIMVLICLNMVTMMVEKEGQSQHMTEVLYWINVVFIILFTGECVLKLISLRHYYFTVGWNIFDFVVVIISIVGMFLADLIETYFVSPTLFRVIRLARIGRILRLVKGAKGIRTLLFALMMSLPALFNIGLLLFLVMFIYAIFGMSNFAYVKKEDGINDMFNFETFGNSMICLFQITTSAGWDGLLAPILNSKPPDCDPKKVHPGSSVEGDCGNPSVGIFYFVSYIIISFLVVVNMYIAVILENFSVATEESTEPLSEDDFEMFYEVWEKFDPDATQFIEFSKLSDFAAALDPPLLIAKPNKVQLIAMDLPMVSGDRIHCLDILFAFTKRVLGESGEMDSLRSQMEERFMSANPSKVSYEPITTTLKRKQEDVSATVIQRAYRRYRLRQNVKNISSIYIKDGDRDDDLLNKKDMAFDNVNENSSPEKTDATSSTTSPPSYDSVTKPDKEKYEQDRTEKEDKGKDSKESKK

The target of this assay is human NaV subtype, like NaV 1.7 (Homo sapiens, UniProt Q15858). Briefly: E-VIPR optical membrane potential assay with electrical stimulation. As to conditions: active against one or more sodium channels; assay and NaV subtype not specified for Table 3; read-out: IC50 Binned Activity Data. The format is cell-based. The source says:
Assays for Detecting and Measuring NaV Inhibition Properties of Compound E-VIPR Optical Membrane Potential Assay Method with Electrical Stimulation
Sodium channels are voltage-dependent proteins that can be activated by inducing membrane voltage changes by applying electric fields. The electrical stimulation instrument and methods of use are described in Ion Channel Assay Methods PCT/US01/21652, herein incorporated by reference and are referred to as E-VIPR. The instrument comprises a microtiter plate handler, an optical system for exciting the coumarin dye while simultaneously recording the coumarin and oxonol emissions, a waveform generator, a current- or voltage-controlled amplifier, and a device for inserting electrodes in well. Under integrated computer control, this instrument passes user-programmed electrical stimulus protocols to cells within the wells of the microtiter plate.
24 hours before the assay on E-VIPR, HEK cells expressing human NaV subtype, like NaV 1.7, are seeded in 384-well poly-lysine coated plates at 15,000-20,000 cells per well. Other subtypes are performed in an analogous mode in a cell line expressing the NaV of interest. HEK cells are grown in media (exact composition is specific to each cell type and NaV subtype) supplemented with 10% FBS (Fetal Bovine Serum, qualified; GibcoBRL #16140-071) and 1% Pen-Strep (Penicillin-Streptomycin; GibcoBRL #15140-122). Cells are grown in vented cap flasks, in 90% humidity and 10% CO2, to 100% confluence. They are usually split by trypsinization 1:10 or 1:20, depending on scheduling needs, and grown for 2-3 days before the next split.
100 mg/mL Pluronic F-127 (Sigma #P2443), in dry DMSO
Compound Plates: 384-well round bottom plate, e.g. Corning 384-well Polypropylene Round Bottom #3656
Cell Plates: 384-well tissue culture treated plate, e.g. Greiner #781091-1B
Bath1 buffer. Glucose 10 mM (1.8 g/L), Magnesium Chloride (Anhydrous), 1 mM (0.095 g/L), Calcium Chloride, 2 mM (0.222 g/L), HEPES 10 mM (2.38 g/L), Potassium Chloride, 4.5 mM (0.335 g/L), Sodium Chloride 160 mM (9.35 g/L).
Hexyl Dye Solution: Bath1 Buffer+0.5% β-cyclodextrin (make this prior to use, Sigma #C4767), 8 μM CC2-DMPE+2.5 μM DiSBAC6(3). To make the solution Add volume of 10% Pluronic F127 stock equal to volumes of CC2-DMPE+DiSBAC6(3). The order of preparation is first mix Pluronic and CC2-DMPE, then add DiSBAC6(3) while vortexing, then add Bath1+β-Cyclodextrin.
1) Pre-spot compounds (in neat DMSO) into compound plates. Vehicle control (neat DMSO), the positive control (20 mM DMSO stock tetracaine, 125 μM final in assay) and test compounds are added to each well at 160× desired final concentration in neat DMSO. Final compound plate volume will be 80 μL (80-fold intermediate dilution from 1 μL DMSO spot; 160-fold final dilution after transfer to cell plate). Final DMSO concentration for all wells in assay is 0.625%.
2) Prepare Hexyl Dye Solution.
3) Prepare cell plates. On the day of the assay, medium is aspirated and cells are washed three times with 100 μL of Bath1 Solution, maintaining 25 μL residual volume in each well.
4) Dispense 25 μL per well of Hexyl Dye Solution into cell plates. Incubate for 20-35 minutes at room temp or ambient conditions.
5) Dispense 80 μL per well of Bath1 into compound plates. Acid Yellow-17 (1 mM) is added and Potassium Chloride can be altered from 4.5 to 20 mM depending on the NaV subtype and assay sensitivity.
6) Wash cell plates three times with 100 μL per well of Bath1, leaving 25 μL of residual volume. Then transfer 25 uL per well from Compound Plates to Cell Plates. Incubate for 20-35 minutes at room temp/ambient condition
7) Read Plate on E-VIPR. Use the current-controlled amplifier to deliver stimulation wave pulses for typically 9 seconds and a scan rate of 400 Hz. A pre-stimulus recording is performed for 0.5 seconds to obtain the un-stimulated intensities baseline. […]
For orientation: pIC50 means the negative decadic logarithm of the IC50, by convention in mol/L. `CC1CCCN(c2ccc(C(=O)N3CCC4(CC3)C[C@@H](OC(C)C)c3cc(F)ccc3O4)nc2)C1` (stereo partly shown) [Compound 132]: the pIC50 was not below 5.70. With `CC(C)O[C@@H]1CC2(CCN(C(=O)c3ccc(N4CCOCC4)cn3)CC2)Oc2ccc(F)cc21` [Compound 52], the pIC50 was not below 5.70.

For the compound `Cc1cc(C(=O)N2CCC3(CC2)C[C@H](O)c2cc(F)ccc2O3)ccc1OC(C)C` [Compound 77], the pIC50 is not below 5.70. Regarding `CC(C)Oc1ccc(C(=O)N2CCC3(CC2)C[C@@H](OC(C)C)c2cc(F)ccc2O3)cc1F` [Compound 112], the pIC50 is not below 5.70. On to `CC(C)O[C@@H]1CC2(CCN(C(=O)c3ccc(S(=O)(=O)C(C)(C)C)cc3)CC2)Oc2ccc(F)cc21` [Compound 59], for which the pIC50 was not below 5.70. The result for `CC(C)Oc1ccc(C(=O)N2CCC3(CC2)CC(OC(C)C)c2ccccc2O3)cc1C#N` (stereo not shown) [Compound 76] reads not below 5.70; that for `Cc1cc(C(=O)N2CCC3(CC2)C[C@@H](OC(C)C)c2cc(F)ccc2O3)ccc1OC1COC1` [Compound 92], not below 5.70.

For the compound `CC(C)Oc1ccc(C(=O)N2CCC3(CC2)C[C@@H](OC(C)C)c2cc(F)ccc2O3)nc1` [Compound 139], the pIC50 is not below 5.70. For the compound `Cc1cc(C(=O)N2CCC3(CC2)CC(OC(C)C)c2cnccc2O3)ccc1OC(C)C` (stereo not shown) [Compound 89], the pIC50 was 5.30 to 5.70. As for `Cc1cc(C(F)F)n2ncc(C(=O)N3CCC4(CC3)C[C@H](OC(C)C)c3ccccc3O4)c2n1` [Compound 159], the pIC50 is not below 5.70. Regarding `Cc1cc(C(=O)N2CCC3(CC2)C[C@@H](OC(C)C)c2cc(F)cc(F)c2O3)ccc1S(=O)(=O)C(C)C` [Compound 27], the pIC50 was not below 5.70. As for `COc1cc(C(=O)N2CCC3(CC2)CC(OC)c2ccccc2S3(=O)=O)ccc1OC(C)C` (stereo not shown) [Compound 109], the pIC50 is less than 5.30. As for `CC(C)O[C@@H]1CC2(CCN(C(=O)c3ccc(S(=O)(=O)C(F)(F)F)cc3)CC2)Oc2ccc(F)cc21` [Compound 7], the pIC50 was not below 5.70. With `COc1cc(C(=O)N2CCC3(CC2)CC(COC(F)F)c2ccccc2O3)ccc1OC(C)C` (stereo not shown) [Compound 63], the pIC50 was not below 5.70. Take `Cc1cc(OC(C)C)ccc1C(=O)N1CCC2(CC1)C[C@@H](OC(C)C)c1ccccc1O2` [Compound 169]: the pIC50 is not below 5.70. For `CC(C)OC1CC2(CCN(C(=O)c3ccc(S(=O)(=O)C(C)C)cc3)CC2)Oc2c(F)cccc21` (stereo not shown) [Compound 78], the pIC50 is not below 5.70. Take `COc1cc(C(=O)N2CCC3(CC2)CC(OC2CCC2)c2ccccc2O3)ccc1OC(C)C` (stereo not shown) [Compound 172]: the pIC50 was not below 5.70. Consider `COc1cc(C(=O)N2CCC3(CC2)C[C@@H](O)c2cc(F)ccc2O3)ccc1OC(C)C` [Compound 98], for which the pIC50 was not below 5.70. Consider `COc1cc(O)ccc1C(=O)N1CCC2(CC1)C[C@@H](OC(C)C)c1ccccc1O2` [Compound 170], for which the pIC50 is not below 5.70. For `COc1cc(O)ccc1C(=O)N1CCC2(CC1)C[C@H](OC(C)C)c1ccccc1O2` [Compound 144], the pIC50 is not below 5.70.

Regarding `CC(C)Oc1ccc(C(=O)N2CCC3(CC2)C[C@@H](OC(C)C)c2ccccc2O3)cn1` [Compound 124], the pIC50 is less than 5.30. The result for `CC(C)O[C@@H]1CC2(CCN(C(=O)c3ccc(N4CCCC4)cn3)CC2)Oc2ccccc21` [Compound 102] reads less than 5.30; that for `Cc1cc(C(=O)N2CCC3(CC2)CC(O)c2c(F)cccc2O3)ccc1OC(C)C` (stereo not shown) [Compound 138], not below 5.70. The result for `COc1cc(C(=O)N2CCC3(CC2)C[C@H](OC(C)C)c2ccccc2O3)ccc1OC(C)C` [Compound 171] reads not below 5.70; that for `COc1cc(C(=O)N2CCC3(CC2)C[C@H](OC(C)C)c2ccccc2O3)ccc1OCCCO` [Compound 106], not below 5.70; that for `CCO[C@@H]1CC2(CCN(C(=O)c3ccc(S(=O)(=O)C(C)C)cc3)CC2)Oc2ccc(F)cc21` [Compound 32], 5.30 to 5.70. Consider `COc1cc(C(=O)N2CCC3(CC2)CC(COC(C)C)c2ccccc2O3)ccc1OC(C)C` (stereo not shown) [Compound 2], for which the pIC50 was not below 5.70.

With `COc1cc(C(=O)N2CCC3(CC2)CC(Cn2cccn2)c2ccccc2O3)ccc1OC(C)C` (stereo not shown) [Compound 143], the pIC50 is not below 5.70. For `CC(C)Oc1ccc(C(=O)N2CCC3(CC2)C[C@@H](OC(C)C)c2ccccc2O3)cc1F` [Compound 140], the pIC50 is not below 5.70.

Turning to `Cc1cc(C(=O)N2CCC3(CC2)CC(OC(C)C)c2ccncc2O3)ccc1OC(C)C` (stereo not shown) [Compound 37], the pIC50 was not below 5.70. `CC[C@H](C)Nc1ccc(C(=O)N2CCC3(CC2)C[C@@H](OC(C)C)c2cc(F)ccc2O3)nc1` [Compound 64]: the pIC50 was not below 5.70. The result for `CC(C)OC1CC2(CCN(C(=O)c3ccccc3OC(F)F)CC2)Oc2ccccc21` (stereo not shown) [Compound 88] reads not below 5.70.

Regarding `COc1cc(C(=O)N2CCC3(CC2)C[C@H](OC(C)C)c2ccccc2O3)ccc1C(C)(C)O` [Compound 166], the pIC50 was not below 5.70. In the case of `COc1cc(C(=O)N2CCC3(CC2)CC(OC(C)C)c2ccc(F)cc2O3)ccc1OC(C)C` (stereo not shown) [Compound 25], the pIC50 is not below 5.70. Consider `COc1ccccc1C(=O)N1CCC2(CC1)CC(OC)c1ccccc1O2` (stereo not shown) [Compound 113], for which the pIC50 is not below 5.70.

Regarding `COC1CCN(c2ccc(C(=O)N3CCC4(CC3)C[C@@H](OC(C)C)c3cc(F)ccc3O4)nc2)CC1` [Compound 41], the pIC50 was not below 5.70. The result for `COc1cc(C(=O)N2CCC3(CC2)CC(CSC)c2ccccc2O3)ccc1OC(C)C` (stereo not shown) [Compound 83] reads not below 5.70; that for `Cc1cc(C(=O)N2CCC3(CC2)C[C@@H](OC(C)C)c2ccccc2O3)ccc1O` [Compound 36], not below 5.70. The result for `CC1CCN(c2ccc(C(=O)N3CCC4(CC3)C[C@@H](OC(C)C)c3cc(F)ccc3O4)nc2)CC1` [Compound 61] reads not below 5.70.

In the case of `CC(C)Oc1ccc(C(=O)N2CCC3(CC2)C[C@@H](OC(C)C)c2cc(F)ccc2O3)cc1CO` [Compound 148], the pIC50 is not below 5.70. For the compound `COc1cc(C(=O)N2CCC3(CC2)CC(C(C)OC)c2ccccc2O3)ccc1OC(C)C` (stereo not shown) [Compound 6], the pIC50 was not below 5.70. `COc1cc(C(=O)N2CCC3(CC2)CC(OC(C)(C)C)c2ccccc2O3)ccc1OC(C)C` (stereo not shown) [Compound 128]: the pIC50 was not below 5.70. Take `COc1cc(C(=O)N2CCC3(CC2)CC(OC(C)C)c2ccccc2O3)ccc1OC(C)C` (stereo not shown) [Compound 150]: the pIC50 is not below 5.70. `CC(C)O[C@@H]1CC2(CCN(C(=O)c3ccc(C4(O)CCCC4)cc3)CC2)Oc2ccc(F)cc21` [Compound 49]: the pIC50 is not below 5.70. As to `COCOC1=Cc2ccccc2OC12CCN(C(=O)c1ccc(OC(C)C)c(OC)c1)CC2` [Compound 44], the pIC50 was not below 5.70.

Consider `CCOC1CC2(CCN(C(=O)c3ccc(OC(C)C)c(OC)c3)CC2)Oc2ccccc21` (stereo not shown) [Compound 12], for which the pIC50 is not below 5.70. As to `Cc1cc(C(=O)N2CCC3(CC2)C[C@@H](O)c2cc(F)ccc2O3)ccc1OC(C)C` [Compound 122], the pIC50 was not below 5.70. Regarding `COc1cc(C(=O)N2CCC3(CC2)C[C@@H](OC(C)C)c2ccccc2O3)ccc1OCCCO` [Compound 116], the pIC50 is 5.30 to 5.70. Consider `CC(C)O[C@@H]1CC2(CCN(C(=O)c3ccc(N4CCN(S(C)(=O)=O)CC4)cn3)CC2)Oc2ccc(F)cc21` [Compound 17], for which the pIC50 was not below 5.70.
